Source: PMC3908613 (Bioscience Reports, 2014)

Assays:
rSlk = molecular target: T1, rSlk (Homo sapiens, UniProt Q9H2G2); assay: Kinase assay for recombinant Slk; type: biochemical; conditions: 25 μM ATP, bovine histone H1 substrate
T1 construct: purchased Millipore
Protocol: The kinase reaction for Lok and Slk was supplemented with 12.5 mM sodium glycerophosphate and 0.25 mM sodium orthovanadate. The reactions were incubated for 15–20 min at 30°C then terminated and analysed as described previously [14].

NIH3T3 cells = assay: Immunoblot of PKB phosphorylation in EGF-stimulated NIH3T3 cells; type: cell-based; conditions: EGF 100 ng/ml, 4 μM D1870
Protocol: BMDC (1.5×10^6 cells) were incubated in 6-well plates in RPMI supplemented with 0.3% FCS for 5 h at 37°C. […] NIH3T3 cells (2×10^4) were plated in 6-well plates for 48 h at 37°C. The cells were deprived of serum for 8 h in DMEM supplemented with 2 mg/ml BSA (Sigma) and then stimulated with 100 ng/ml EGF (epidermal growth factor; Peprotech) for 5 min at 37°C.
Cells were washed in cold PBS, lysed on ice for 10 min in lysis buffer (1% Triton X-100 containing 50 mM Tris–HCl (pH 7.5), 150 mM NaCl, 1 mM EGTA, 1 mM EDTA, 10 mM NaF, 1 mM sodium orthovanadate and 5 mM sodium pyrophosphate and protease inhibitors (Roche)) and centrifuged for 10 min at 20000 g at 4°C.

BMDC = assay: FITC-dextran uptake (macropinocytosis) by BMDC; type: cell-based, C57BL/6 mice; conditions: LPS 50 ng/ml, FITC-dextran 1 mg/ml; Akt-i at 1 μM
Protocol: DCs were generated from the bone marrow or the spleen of C57BL/6 mice as previously described. Briefly, bone marrow cells were cultured for 7 days at 37°C, 5% (v/v) CO2 in complete RPMI medium supplemented with 10 ng/ml recombinant granulocyte–macrophage colony-stimulating factor (GM-CSF; Peprotech). Spleen cells were cultured for 14 days at 37°C, 5% CO2 in complete RPMI containing 10 ng/ml GM-CSF and 1 ng/ml TGFβ (transforming growth factor-β; R&D Systems). NIH3T3 cells (European Cell Culture Collection) were cultured in DMEM (Dulbecco's modified Eagle's medium) supplemented with glutamine, penicillin, streptomycin and 10% (v/v) calf serum (Invitrogen).
FITC-dextran uptake was measured as described. […] In some experiments, cells were pre-treated with 1 μM Akt-i (Merck) for 30 min. Cells were left unstimulated or were stimulated with 50 ng/ml LPS for 20 min at 37°C followed by the addition of 1 mg/ml FITC dextran (Invitrogen) for 10 min at 37°C. Cells were washed four times at 4°C in PBS supplemented with 2% (v/v) FCS (foetal calf serum) and then stained with APC (allophycocyanin)-labelled anti-CD11c antibody (BD biosciences). FITC dextran uptake was measured on an FACS Calibur (BD biosciences).

PLK1 = molecular target: T2, PLK1 (Mus musculus, UniProt Q07832); assay: Desthiobiotin-ATP probe capture on streptavidin beads, Western blot; type: binding, C57BL/6 mice; conditions: 10 μM inhibitor, DC lysate
T2 construct: endogenous in cells; host or cells: mouse spleen-derived dendritic cells (SDC), lysate
T2 sequence (Q07832 whole entry): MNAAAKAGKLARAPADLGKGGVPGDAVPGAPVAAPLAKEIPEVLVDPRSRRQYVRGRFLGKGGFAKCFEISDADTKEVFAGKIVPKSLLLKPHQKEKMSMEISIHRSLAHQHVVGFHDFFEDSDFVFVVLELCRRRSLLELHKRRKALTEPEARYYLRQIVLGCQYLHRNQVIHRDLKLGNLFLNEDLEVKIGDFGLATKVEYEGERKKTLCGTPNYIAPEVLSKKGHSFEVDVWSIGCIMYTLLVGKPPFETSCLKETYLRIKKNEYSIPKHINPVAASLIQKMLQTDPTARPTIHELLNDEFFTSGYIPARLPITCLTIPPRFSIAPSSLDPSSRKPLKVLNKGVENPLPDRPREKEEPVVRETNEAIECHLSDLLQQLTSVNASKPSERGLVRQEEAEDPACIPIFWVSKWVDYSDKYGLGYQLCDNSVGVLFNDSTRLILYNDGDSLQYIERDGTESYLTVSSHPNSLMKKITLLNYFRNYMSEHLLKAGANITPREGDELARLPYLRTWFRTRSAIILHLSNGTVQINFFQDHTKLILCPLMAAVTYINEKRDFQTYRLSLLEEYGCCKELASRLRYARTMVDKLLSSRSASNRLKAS
Protocol: SDC were cultured for at least 14 days in RPMI (without arginine and lysine, custom-made by Biosera) containing 10% dialysed FCS (Hyclone) supplemented with 84 mg/l of L-arginine (Sigma) and 40 mg/l L-lysine (Sigma) for the ‘light’ medium or 84 mg/l of L-arginine ^13C6 or ^13C10 and 40 mg/l L-lysine ^13C6 (Cambridge Isotope Laboratory) for the ‘heavy’ medium. Equal numbers (2×10^7) of ‘light’ or ‘heavy’ labelled SDCs were incubated in RPMI containing 0.5% FCS for 3 h in 15 cm dishes. The cells were lysed in the lysis buffer provided in the kit (Pierce). […] Labelling with the desthiobiotin ATP probe, and precipitation with streptavidin beads were performed according to the manufacturer's instructions (Pierce kinase enrichment kit or ActivX™). Equal amount of streptavidin precipitates were separated by electrophoresis as described above and probed with antibodies against Rsk2, Lok (Bethyl), Slk (Bethyl), PLK1 (Calbiochem), p38, Erk2 and Mst1 (from Cell Signaling).

Aurora B = conditions: cited from earlier work

T1 sequence (Q9H2G2 whole entry): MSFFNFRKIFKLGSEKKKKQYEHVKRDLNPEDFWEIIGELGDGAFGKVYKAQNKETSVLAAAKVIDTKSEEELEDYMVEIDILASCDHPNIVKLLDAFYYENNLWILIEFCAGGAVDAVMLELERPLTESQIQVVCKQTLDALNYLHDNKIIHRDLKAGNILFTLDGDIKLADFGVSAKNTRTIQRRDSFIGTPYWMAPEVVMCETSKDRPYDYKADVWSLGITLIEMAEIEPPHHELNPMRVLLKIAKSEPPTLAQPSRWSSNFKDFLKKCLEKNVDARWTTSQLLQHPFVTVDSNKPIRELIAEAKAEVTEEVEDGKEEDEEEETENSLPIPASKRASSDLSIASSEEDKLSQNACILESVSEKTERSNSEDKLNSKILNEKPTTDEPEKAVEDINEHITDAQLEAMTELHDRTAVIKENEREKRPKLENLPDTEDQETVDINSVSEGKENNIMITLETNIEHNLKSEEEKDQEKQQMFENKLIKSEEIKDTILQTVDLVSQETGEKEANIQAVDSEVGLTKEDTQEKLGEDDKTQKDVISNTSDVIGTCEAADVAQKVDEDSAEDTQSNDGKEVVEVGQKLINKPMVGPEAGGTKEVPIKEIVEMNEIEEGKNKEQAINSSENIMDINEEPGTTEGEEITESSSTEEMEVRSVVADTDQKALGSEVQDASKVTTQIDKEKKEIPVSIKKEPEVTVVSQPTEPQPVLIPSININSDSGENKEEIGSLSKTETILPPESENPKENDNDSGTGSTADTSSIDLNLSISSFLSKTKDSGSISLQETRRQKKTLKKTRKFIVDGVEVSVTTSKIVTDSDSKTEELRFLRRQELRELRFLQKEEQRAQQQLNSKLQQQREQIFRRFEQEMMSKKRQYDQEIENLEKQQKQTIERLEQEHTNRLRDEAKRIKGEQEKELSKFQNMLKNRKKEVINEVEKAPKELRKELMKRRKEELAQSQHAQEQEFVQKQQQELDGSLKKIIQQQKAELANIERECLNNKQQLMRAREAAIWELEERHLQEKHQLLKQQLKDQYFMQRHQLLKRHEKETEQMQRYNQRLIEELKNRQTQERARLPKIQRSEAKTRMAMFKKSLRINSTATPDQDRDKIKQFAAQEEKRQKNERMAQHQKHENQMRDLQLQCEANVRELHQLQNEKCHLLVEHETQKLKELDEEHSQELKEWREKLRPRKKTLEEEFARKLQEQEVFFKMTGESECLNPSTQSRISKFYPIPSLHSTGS

CC(C)CCN1c2nc(Nc3cc(F)c(O)c(F)c3)ncc2N(C)C(=O)C1C (centres unmarked) [D1870, BI-D1870]
IC50 (rSlk): 0.25 µM
PKB phosphorylation (NIH3T3 cells): not affected
LPS-mediated dextran uptake (BMDC): completely blocked
Recovery of PLK1 on streptavidin beads (PLK1): blocked
IC50 (Aurora B): 0.34 µM
